Measured values taken from PubChem BioAssay (NCI).
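How tested: cells in 96-well plates exposed to compound for 48 hours at five concentrations. TGI: concentration producing complete growth inhibition.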

Tests used:
Assay in all cases: NCI-60 cell line screen, 48 h
HCC-2998 colon = tested on: HCC-2998 colon
EKVX NSCLC = tested on: EKVX NSCLC
OVCAR-4 ovarian = tested on: OVCAR-4 ovarian
TK-10 renal = tested on: TK-10 renal
SR leukemia = tested on: SR leukemia
SF-539 CNS = tested on: SF-539 CNS
NCI-H23 lung = tested on: NCI-H23 lung
NCI-H522 lung = tested on: NCI-H522 lung
NCI-H460 lung = tested on: NCI-H460 lung
CCRF-CEM leukemia = tested on: CCRF-CEM leukemia
RPMI-8226 leukemia = tested on: RPMI-8226 leukemia
SN12C renal = tested on: SN12C renal
CAKI-1 renal = tested on: CAKI-1 renal
NCI-H226 lung = tested on: NCI-H226 lung
SNB-75 CNS = tested on: SNB-75 CNS
SF-295 CNS = tested on: SF-295 CNS
OVCAR-5 ovarian = tested on: OVCAR-5 ovarian
NCI/ADR-RES ovarian = tested on: NCI/ADR-RES ovarian
PC-3 prostate = tested on: PC-3 prostate
A549 NSCLC = tested on: A549 NSCLC

| SMILES | TGI (HCC-2998 colon) [µM] | TGI (EKVX NSCLC) [µM] | TGI (OVCAR-4 ovarian) [µM] | TGI (TK-10 renal) [µM] | TGI (SR leukemia) [µM] | TGI (SF-539 CNS) [µM] | TGI (NCI-H23 lung) [µM] | TGI (NCI-H522 lung) [µM] | TGI (NCI-H460 lung) [µM] | TGI (CCRF-CEM leukemia) [µM] | TGI (RPMI-8226 leukemia) [µM] | TGI (SN12C renal) [µM] | TGI (CAKI-1 renal) [µM] | TGI (NCI-H226 lung) [µM] | TGI (SNB-75 CNS) [µM] | TGI (SF-295 CNS) [µM] | TGI (OVCAR-5 ovarian) [µM] | TGI (NCI/ADR-RES ovarian) [µM] | TGI (PC-3 prostate) [µM] | TGI (A549 NSCLC) [µM] |
| --- | --- | --- | --- | --- | --- | --- | --- | --- | --- | --- | --- | --- | --- | --- | --- | --- | --- | --- | --- | --- |
| O=C(O)c1ccc(NNC(=O)c2cccc3c(=O)c4ccccc4[nH]c23)cc1 | > 100 | > 100 | > 100 | > 100 | > 100 | > 100 | > 100 | 96 | > 100 | > 100 | > 100 | > 100 | > 100 | > 100 | > 100 | > 100 | > 100 | > 100 | > 100 | > 100 |
| COc1ccc(C(SCC(N)C(=O)O)(c2ccc(OC)cc2)c2ccc(OC)cc2)cc1 (centres undefined) | 17.4 | 21.9 | 27.7 | 25.6 | > 31.6 | 17.6 | 20.6 | 39.8 | 17.3 | > 31.6 | > 31.6 | 17.7 | > 31.6 | 18.3 | 19.4 | 17.8 | 20.7 | 19.4 | 17.9 | > 31.6 |
| Cn1c(=O)c2c(nc3n(C)c(=O)c4ccccc4n23)n(C)c1=O | > 100 | > 100 | > 100 | > 100 | 20.1 | > 100 | > 100 | > 100 | > 100 | 44.9 | > 76.7 | > 100 | > 100 | 58.7 | > 93.5 | > 91.4 | > 100 | > 100 | > 100 | > 100 |
| O=Nc1c(NO)ccc2nn(-c3ccccc3)nc12 | 85.5 | > 100 | > 100 | > 100 | > 100 | 18.4 |  | 13.2 | > 100 | > 100 | > 100 | 40 | 71.3 | 6.64 | > 100 | > 100 | 37.6 | > 100 | > 100 | > 100 |
| Cc1cc(O)c2c(c1)CC(O)C1=C2C(=O)c2c(O)ccc(OC3CC(O)C(OC4CC(OC5CCC(O)C(C)O5)C(O)C(C)O4)C(C)O3)c2C1=O (centres undefined) | 3.58 | 4.27 | 3.45 | 4.03 | 2.81 | 3.62 | 3.88 | 2.52 | 4.85 | 0.706 | 3.22 | 3.25 | 3.23 | 3.32 | 7.73 | 7.47 | 12.8 | 9.61 | 3.96 | 7.77 |
